ChEMBL document CHEMBL1147911, “Synthesis and evaluation of novel benzimidazole derivative [Bz-Im] and its radio/biological studies” (Bioorg Med Chem Lett, 2007)
One block for each molecule: values may come before it.

Tests used:
[1] = target: T1, Cholecystokinin receptor type A (Rattus norvegicus, UniProt P30551); assay: Displacement of [125I](BH)CCK8 from rat CCK1 after 30 mins by receptor binding assay
T1 sequence (P30551 whole entry): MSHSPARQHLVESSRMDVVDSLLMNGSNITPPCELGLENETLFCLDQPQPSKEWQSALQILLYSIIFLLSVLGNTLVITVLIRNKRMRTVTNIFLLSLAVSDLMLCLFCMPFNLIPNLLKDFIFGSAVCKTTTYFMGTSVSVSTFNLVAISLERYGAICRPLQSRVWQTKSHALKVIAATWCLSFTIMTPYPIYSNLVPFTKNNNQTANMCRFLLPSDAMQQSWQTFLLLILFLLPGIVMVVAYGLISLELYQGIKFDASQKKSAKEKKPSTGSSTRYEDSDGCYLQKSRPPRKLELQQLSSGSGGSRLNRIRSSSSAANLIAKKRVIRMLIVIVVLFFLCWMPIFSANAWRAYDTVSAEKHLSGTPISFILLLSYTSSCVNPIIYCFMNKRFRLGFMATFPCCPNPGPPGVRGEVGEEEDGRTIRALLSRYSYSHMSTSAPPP

[2] = target: T2, Cholecystokinin receptor type A (Cavia porcellus, UniProt Q63931); assay: Displacement of [125I](BH)CCK8 from Guinea pig CCK1 after 30 mins by receptor binding assay
T2 sequence (Q63931 whole entry): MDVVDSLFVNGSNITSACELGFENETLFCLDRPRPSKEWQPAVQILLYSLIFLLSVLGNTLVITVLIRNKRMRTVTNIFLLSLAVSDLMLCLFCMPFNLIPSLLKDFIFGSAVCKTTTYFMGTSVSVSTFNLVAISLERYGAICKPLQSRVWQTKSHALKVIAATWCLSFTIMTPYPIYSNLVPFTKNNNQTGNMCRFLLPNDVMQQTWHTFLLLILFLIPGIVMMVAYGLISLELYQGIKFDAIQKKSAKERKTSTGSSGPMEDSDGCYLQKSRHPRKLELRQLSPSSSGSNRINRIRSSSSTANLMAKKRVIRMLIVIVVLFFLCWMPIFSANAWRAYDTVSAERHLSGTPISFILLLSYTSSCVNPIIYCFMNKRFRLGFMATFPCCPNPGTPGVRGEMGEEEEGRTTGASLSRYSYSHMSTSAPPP

Aspergillus flavus [3] = assay: Antifungal activity against Aspergillus flavus at 10 ug/ml after seven days by agar plate method; assay type: functional; details: 168 h
Aspergillus flavus [4] = assay: Antifungal activity against Aspergillus flavus at 20 ug/ml after seven days by agar plate method; assay type: functional; details: 168 h
Aspergillus flavus [5] = assay: Antifungal activity against Aspergillus flavus at 50 ug/ml after seven days by agar plate method; assay type: functional; details: 168 h
Aspergillus niger [6] = assay: Antifungal activity against Aspergillus niger at 20 ug/ml after seven days by agar plate method; assay type: functional; details: 168 h
Aspergillus niger [7] = assay: Antifungal activity against Aspergillus niger at 50 ug/ml after seven days by agar plate method; assay type: functional; details: 168 h
Aspergillus niger [8] = assay: Antifungal activity against Aspergillus niger at 10 ug/ml after seven days by agar plate method; assay type: functional; details: 168 h
Stomach [9] = assay: Biodistribution in Albino mouse stomach at 10 uCi after 1 hr; assay type: ADME, organism-based; details: in vivo
Stomach [10] = assay: Biodistribution in Albino mouse stomach at 10 uCi after 2 hr; assay type: ADME, organism-based; details: in vivo
Stomach [11] = assay: Biodistribution in Albino mouse stomach at 10 uCi after 4 hr; assay type: ADME, organism-based; details: in vivo
Stomach [12] = assay: Biodistribution in Albino mouse stomach at 10 uCi after 6 hr; assay type: ADME, organism-based; details: in vivo
Stomach [13] = assay: Biodistribution in Albino mouse stomach at 10 uCi after 8 hr; assay type: ADME, organism-based; details: in vivo
Intestine [14] = assay: Biodistribution in Albino mouse intestine at 10 uCi after 1 hr; assay type: ADME, organism-based; details: in vivo
Intestine [15] = assay: Biodistribution in Albino mouse intestine at 10 uCi after 2 hr; assay type: ADME, organism-based; details: in vivo
Intestine [16] = assay: Biodistribution in Albino mouse intestine at 10 uCi after 4 hr; assay type: ADME, organism-based; details: in vivo
Intestine [17] = assay: Biodistribution in Albino mouse intestine at 10 uCi after 6 hr; assay type: ADME, organism-based; details: in vivo
Intestine [18] = assay: Biodistribution in Albino mouse intestine at 10 uCi after 8 hr; assay type: ADME, organism-based; details: in vivo
Brain [19] = assay: Biodistribution in Albino mouse brain at 10 uCi after 2 hr; assay type: ADME, organism-based; details: in vivo
Brain [20] = assay: Biodistribution in Albino mouse brain at 10 uCi after 4 hr; assay type: ADME, organism-based; details: in vivo
Brain [21] = assay: Biodistribution in Albino mouse brain at 10 uCi after 6 hr; assay type: ADME, organism-based; details: in vivo
Brain [22] = assay: Biodistribution in Albino mouse brain at 10 uCi after 8 hr; assay type: ADME, organism-based; details: in vivo
Liver [23] = assay: Biodistribution in Albino mouse liver at 10 uCi after 1 hr; assay type: ADME, organism-based; details: in vivo
Liver [24] = assay: Biodistribution in Albino mouse liver at 10 uCi after 2 hr; assay type: ADME, organism-based; details: in vivo
Liver [25] = assay: Biodistribution in Albino mouse liver at 10 uCi after 4 hr; assay type: ADME, organism-based; details: in vivo
Liver [26] = assay: Biodistribution in Albino mouse liver at 10 uCi after 6 hr; assay type: ADME, organism-based; details: in vivo
Liver [27] = assay: Biodistribution in Albino mouse liver at 10 uCi after 8 hr; assay type: ADME, organism-based; details: in vivo
Spleen [28] = assay: Biodistribution in Albino mouse spleen at 10 uCi after 1 hr; assay type: ADME, organism-based; details: in vivo
Spleen [29] = assay: Biodistribution in Albino mouse spleen at 10 uCi after 2 hr; assay type: ADME, organism-based; details: in vivo
Spleen [30] = assay: Biodistribution in Albino mouse spleen at 10 uCi after 4 hr; assay type: ADME, organism-based; details: in vivo
Spleen [31] = assay: Biodistribution in Albino mouse spleen at 10 uCi after 6 hr; assay type: ADME, organism-based; details: in vivo
Spleen [32] = assay: Biodistribution in Albino mouse spleen at 10 uCi after 8 hr; assay type: ADME, organism-based; details: in vivo
Kidney [33] = assay: Biodistribution in Albino mouse kidney at 10 uCi after 1 hr; assay type: ADME, organism-based; details: in vivo
Kidney [34] = assay: Biodistribution in Albino mouse kidney at 10 uCi after 2 hr; assay type: ADME, organism-based; details: in vivo
Kidney [35] = assay: Biodistribution in Albino mouse kidney at 10 uCi after 4 hr; assay type: ADME, organism-based; details: in vivo
Kidney [36] = assay: Biodistribution in Albino mouse kidney at 10 uCi after 6 hr; assay type: ADME, organism-based; details: in vivo
Kidney [37] = assay: Biodistribution in Albino mouse kidney at 10 uCi after 8 hr; assay type: ADME, organism-based; details: in vivo
Blood [38] = assay: Biodistribution in Albino mouse blood at 10 uCi after 1 hr; assay type: ADME, organism-based; details: in vivo
Blood [39] = assay: Biodistribution in Albino mouse blood at 10 uCi after 2 hr; assay type: ADME, organism-based; details: in vivo
Blood [40] = assay: Biodistribution in Albino mouse blood at 10 uCi after 4 hr; assay type: ADME, organism-based; details: in vivo
Blood [41] = assay: Biodistribution in Albino mouse blood at 10 uCi after 6 hr; assay type: ADME, organism-based; details: in vivo
Blood [42] = assay: Biodistribution in Albino mouse blood at 10 uCi after 8 hr; assay type: ADME, organism-based; details: in vivo
Heart [43] = assay: Biodistribution in Albino mouse heart at 10 uCi after 1 hr; assay type: ADME, organism-based; details: in vivo
Heart [44] = assay: Biodistribution in Albino mouse heart at 10 uCi after 2 hr; assay type: ADME, organism-based; details: in vivo
Heart [45] = assay: Biodistribution in Albino mouse heart at 10 uCi after 4 hr; assay type: ADME, organism-based; details: in vivo
Heart [46] = assay: Biodistribution in Albino mouse heart at 10 uCi after 6 hr; assay type: ADME, organism-based; details: in vivo
Heart [47] = assay: Biodistribution in Albino mouse heart at 10 uCi after 8 hr; assay type: ADME, organism-based; details: in vivo

IC50 [1]: 197 nM
IC50 [2]: 16400 nM
SMILES: O=C1c2ccccc2C(=O)N1Cc1c(O)ccc2c(/C=C/c3ccc(-c4ccccc4)cc3)cc3nc4ccccc4n3c12

IC50 [1]: 942 nM
IC50 [2]: 4320 nM
Drug uptake (Stomach [9]): 1 % ID/g
Drug uptake (Stomach [10]): 2.5 % ID/g
Drug uptake (Stomach [11]): 3 % ID/g
Drug uptake (Stomach [12]): 7 % ID/g
Drug uptake (Stomach [13]): 9.5 % ID/g
Drug uptake (Intestine [14]): 0.5 % ID/g
Drug uptake (Intestine [15]): 0.5 % ID/g
Drug uptake (Intestine [16]): 0.2 % ID/g
Drug uptake (Intestine [17]): 3 % ID/g
Drug uptake (Intestine [18]): 3 % ID/g
Drug uptake (Brain [19]): 0.2 % ID/g
Drug uptake (Brain [20]): 0.45 % ID/g
Drug uptake (Brain [21]): 1 % ID/g
Drug uptake (Brain [22]): 1 % ID/g
Drug uptake (Liver [23]): 18 % ID/g
Drug uptake (Liver [24]): 25 % ID/g
Drug uptake (Liver [25]): 18 % ID/g
Drug uptake (Liver [26]): 15 % ID/g
Drug uptake (Liver [27]): 15 % ID/g
Drug uptake (Spleen [28]): 10 % ID/g
Drug uptake (Spleen [29]): 15 % ID/g
Drug uptake (Spleen [30]): 14 % ID/g
Drug uptake (Spleen [31]): 12 % ID/g
Drug uptake (Spleen [32]): 11 % ID/g
Drug uptake (Kidney [33]): 5 % ID/g
Drug uptake (Kidney [34]): 7 % ID/g
Drug uptake (Kidney [35]): 2 % ID/g
Drug uptake (Kidney [36]): 5 % ID/g
Drug uptake (Kidney [37]): 5 % ID/g
Drug uptake (Blood [38]): 3 % ID/g
Drug uptake (Blood [39]): 2 % ID/g
Drug uptake (Blood [40]): 2 % ID/g
Drug uptake (Blood [41]): 0.5 % ID/g
Drug uptake (Blood [42]): 0.5 % ID/g
Drug uptake (Heart [43]): 1 % ID/g
Drug uptake (Heart [44]): 0.4 % ID/g
Drug uptake (Heart [45]): 0.3 % ID/g
Drug uptake (Heart [46]): 0.3 % ID/g
Drug uptake (Heart [47]): 0.2 % ID/g
SMILES: O=C1c2ccccc2C(=O)N1Cc1c(O)ccc2c(/C=C/c3ccccc3)cc3nc4ccccc4n3c12
inhibition at 10 µg/mL (Aspergillus flavus [3]): 73.3%
inhibition at 20 µg/mL (Aspergillus flavus [4]): 76.7%
inhibition at 50 µg/mL (Aspergillus flavus [5]): 88.3%
inhibition at 20 µg/mL (Aspergillus niger [6]): 76.8%
inhibition at 50 µg/mL (Aspergillus niger [7]): 84.6%
inhibition at 10 µg/mL (Aspergillus niger [8]): 60.3%

IC50 [1]: 665 nM
IC50 [2]: 2940 nM
Drug uptake (Stomach [9]): 1 % ID/g
Drug uptake (Stomach [10]): 2 % ID/g
Drug uptake (Stomach [11]): 3 % ID/g
Drug uptake (Stomach [12]): 7 % ID/g
Drug uptake (Stomach [13]): 7.5 % ID/g
Drug uptake (Intestine [14]): 0.5 % ID/g
Drug uptake (Intestine [15]): 0.5 % ID/g
Drug uptake (Intestine [16]): 0.2 % ID/g
Drug uptake (Intestine [17]): 1 % ID/g
Drug uptake (Intestine [18]): 1 % ID/g
Drug uptake (Brain [19]): 0.2 % ID/g
Drug uptake (Brain [20]): 0.45 % ID/g
Drug uptake (Brain [21]): 1 % ID/g
Drug uptake (Brain [22]): 1 % ID/g
Drug uptake (Liver [23]): 16 % ID/g
Drug uptake (Liver [24]): 23 % ID/g
Drug uptake (Liver [25]): 14 % ID/g
Drug uptake (Liver [26]): 15 % ID/g
Drug uptake (Liver [27]): 15 % ID/g
Drug uptake (Spleen [28]): 10 % ID/g
Drug uptake (Spleen [29]): 15 % ID/g
Drug uptake (Spleen [30]): 17 % ID/g
Drug uptake (Spleen [31]): 16 % ID/g
Drug uptake (Spleen [32]): 16 % ID/g
Drug uptake (Kidney [33]): 5.5 % ID/g
Drug uptake (Kidney [34]): 6 % ID/g
Drug uptake (Kidney [35]): 3 % ID/g
Drug uptake (Kidney [36]): 4.5 % ID/g
Drug uptake (Kidney [37]): 4.5 % ID/g
Drug uptake (Blood [38]): 2.5 % ID/g
Drug uptake (Blood [39]): 2 % ID/g
Drug uptake (Blood [40]): 2 % ID/g
Drug uptake (Blood [41]): 2.5 % ID/g
Drug uptake (Blood [42]): 2.5 % ID/g
Drug uptake (Heart [43]): 0.8 % ID/g
Drug uptake (Heart [44]): 0.5 % ID/g
Drug uptake (Heart [45]): 0.2 % ID/g
Drug uptake (Heart [46]): 0.1 % ID/g
Drug uptake (Heart [47]): 0.2 % ID/g
SMILES: O=C1c2ccccc2C(=O)N1Cc1c(O)ccc2c(/C=C/c3ccc(O)cc3)cc3nc4ccccc4n3c12
inhibition at 10 µg/mL (Aspergillus flavus [3]): 60.8%
inhibition at 20 µg/mL (Aspergillus flavus [4]): 73.4%
inhibition at 50 µg/mL (Aspergillus flavus [5]): 92.1%
inhibition at 20 µg/mL (Aspergillus niger [6]): 83.2%
inhibition at 50 µg/mL (Aspergillus niger [7]): 83.6%
inhibition at 10 µg/mL (Aspergillus niger [8]): 60.7%

SMILES: C[C@@H]1[C@H](O)[C@@H](C)/C=C/C=C/C=C/C=C/C=C/C=C/C=C/[C@H](O[C@@H]2O[C@H](C)[C@@H](O)[C@H](N)[C@@H]2O)C[C@@H]2O[C@](O)(C[C@@H](O)C[C@@H](O)[C@H](O)CC[C@@H](O)C[C@@H](O)CC(=O)O[C@H]1C)C[C@H](O)[C@H]2C(=O)O [AMPHOTERICIN B]
inhibition at 20 µg/mL (Aspergillus flavus [4]): 86.4%
inhibition at 20 µg/mL (Aspergillus niger [6]): 79.9%
